What is called EC50 is the concentration that produces a half-maximal response.

This passage reports EC50 results from patent US10736883B2, “Triazole furan compounds as agonists of the APJ receptor” (AMGEN INC., priority 2016, dated 2020).

Chain of APJ receptor (P35414 whole entry): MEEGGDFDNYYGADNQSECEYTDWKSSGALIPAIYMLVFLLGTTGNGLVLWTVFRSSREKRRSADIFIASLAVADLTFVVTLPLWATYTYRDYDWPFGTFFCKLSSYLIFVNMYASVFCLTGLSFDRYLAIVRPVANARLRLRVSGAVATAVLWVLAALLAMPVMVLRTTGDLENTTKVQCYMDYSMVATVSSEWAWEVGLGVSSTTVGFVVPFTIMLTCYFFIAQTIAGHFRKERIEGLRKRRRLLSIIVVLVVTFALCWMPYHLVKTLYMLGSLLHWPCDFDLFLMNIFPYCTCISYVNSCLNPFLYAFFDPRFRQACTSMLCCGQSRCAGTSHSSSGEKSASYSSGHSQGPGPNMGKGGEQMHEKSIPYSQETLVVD

The assay addresses APJ receptor (Homo sapiens (Human), UniProt P35414). Nature of the assay: [35S]GTPγS binding assay on membranes from CHO cells stably expressing human APJ receptor. It counts as biochemical. The note with it: membranes of CHO cells stably expressing human APJ receptor, means of several independent experiments, read-out: Activity hAPJ SPA EC50 IP. The method in brief:
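EC50 values were obtained by non-linear regression of [35S]GTPγS (0.2 nM) binding after 90 min at RT, with nonspecific binding defined by 100 μM GTPγS. Reactions used human APJ–expressing CHO cell membranes on WGA PS beads in HEPES pH 7.5 buffer with 5 mM MgCl2, 200 mM NaCl, 3 μM GDP and 0.1% BSA.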
(GTPγS is a poorly hydrolysed GTP analogue; its binding reports G protein activation.)
Turning to `COc1cccc(OC)c1-n1c(NS(=O)(=O)CCc2ncc(Cl)cc2CCN2CCCC2)nnc1-c1ccco1` [Example 232.0, 2-(5-Chloro-3-(2-(1-pyrrolidinyl)ethyl)-2-pyridinyl)-N-(4-(2,6-dimethoxyphenyl)-5-(2-furanyl)-4H-1,2,4-triazol-3-yl)ethanesulfonamide], the half-maximal effective concentration (EC50) is 450 pM.
As for `COc1cccc(OC)c1-n1c(NS(=O)(=O)CCc2ncc(Cl)cc2CCN2CCC2)nnc1-c1ccco1` [Example 235.0, 2-(3-(2-(1-Azetidinyl)ethyl)-5-chloro-2-pyridinyl)-N-(4-(2,6-dimethoxyphenyl)-5-(2-furanyl)-4H-1,2,4-triazol-3-yl)ethanesulfonamide], the EC50 stood at 560 pM.
Regarding `COc1cccc(OC)c1-n1c(NS(=O)(=O)CCc2ncc(Cl)cc2CCN2CC[C@H](O)C2)nnc1-c1ccco1` [Example 238.0, 2-(5-Chloro-3-(2-((3S)-3-hydroxy-1-pyrrolidinyl)ethyl)-2-pyridinyl)-N-(4-(2,6-dimethoxyphenyl)-5-(2-furanyl)-4H-1,2,4-triazol-3-yl)ethanesulfonamide], the EC50 stood at 590 pM.
For `COc1cccc(OC)c1-n1c(NS(=O)(=O)CCc2ncc(Cl)cc2CCN2CCOCC2)nnc1-c1ccco1` [Example 239.0, 2-(5-Chloro-3-(2-(4-morpholinyl)ethyl)-2-pyridinyl)-N-(4-(2,6-dimethoxyphenyl)-5-(2-furanyl)-4H-1,2,4-triazol-3-yl)ethanesulfonamide], the half-maximal effective concentration (EC50) was found to be 600 pM.
`COc1cccc(OC)c1-n1c(NS(=O)(=O)[C@@H](C)[C@@](C)(O)c2ncc(F)cn2)nnc1-c1ccc(C)o1` [Example 242.0, (2S,3S)—N-(4-(2,6-Dimethoxyphenyl)-5-(5-methyl-2-furanyl)-4H-1,2,4-triazol-3-yl)-3-(5-fluoro-2-pyrimidinyl)-3-hydroxy-2-butanesulfonamide]: the EC50 came to 810 pM.
Under `COc1ncnc(OC)c1-n1c(NS(=O)(=O)CCc2ccc(F)cc2C#N)nnc1-c1ccco1` [Example 252.0, 2-(2-Cyano-4-fluorophenyl)-N-(4-(4,6-dimethoxy-5-pyrimidinyl)-5-(2-furanyl)-4H-1,2,4-triazol-3-yl)ethanesulfonamide] stands 9700 pM; under `COc1ncnc(OC)c1-n1c(NS(=O)(=O)CCc2ccc(Cl)cc2)nnc1-c1ccco1` [Example 253.0, 2-(4-Chlorophenyl)-N-(4-(4,6-dimethoxy-5-pyrimidinyl)-5-(2-furanyl)-4H-1,2,4-triazol-3-yl)ethanesulfonamide], 15000 pM.
Under `COc1cccc(OC)c1-n1c(NS(=O)(=O)[C@@H](C)[C@H](C)c2ncc(C)cn2)nnc1-c1ccc(C)o1` [Example 262.0, (2S,3R)-N-(4-(2,6-dimethoxyphenyl)-5-(5-methylfuran-2-yl)-4H-1,2,4-triazol-3-yl)-3-(5-methylpyrimidin-2-yl)butane-2-sulfonamide] stands 70 pM; under `C[C@@H](Cc1ncc(F)cn1)S(=O)(=O)Nc1nnc(-c2ccco2)n1-c1ccccc1C(F)(F)F` [Example 318.0, (2S)-1-(5-Fluoro-2-pyrimidinyl)-N-(5-(2-furanyl)-4-(2-(trifluoromethyl)phenyl)-4H-1,2,4-triazol-3-yl)-2-propanesulfonamide and (2S)-1-(5-fluoro-2-pyrimidinyl)-N-(5-(2-furanyl)-4-(2-(trifluoromethyl)phenyl)-4H-1,2,4-triazol-3-yl)-2-propanesulfonamide], 420000 pM; under `COc1cccc(OC)c1-n1c(NS(=O)(=O)[C@H]2C[C@@H](O)CN(c3cncc(C#N)c3)C2)nnc1-c1ccc(C)o1` [Example 334.0, (3S,5R)-1-(5-Cyanopyridin-3-yl)-N-(4-(2,6-dimethoxyphenyl)-5-(5-methylfuran-2-yl)-4H-1,2,4-triazol-3-yl)-5-hydroxypiperidine-3-sulfonamide and (3S,5R)-1-(5-cyanopyridin-3-yl)-N-(4-(2,6-dimethoxyphenyl)-5-(5-methylfuran-2-yl)-4H-1,2,4-triazol-3-yl)-5-hydroxypiperidine-3-sulfonamide], 470 pM.
In the case of `COc1ncnc(OC)c1-n1c(NS(=O)(=O)[C@@H](C)[C@H](C)c2ncc(Cl)cn2)nnc1-c1ccc(C)o1` [Example 383.0, (2S,3R)-3-(5-Chloropyrimidin-2-yl)-N-(4-(4,6-dimethoxypyrimidin-5-yl)-5-(5-methylfuran-2-yl)-4H-1,2,4-triazol-3-yl)butane-2-sulfonamide] it was 60 pM; in that of `COc1ncnc(OC)c1-n1c(NS(=O)(=O)[C@@H](C)[C@H](OC)c2ncc(Cl)cn2)nnc1-c1ccc(C)o1` [Example 384.0, (1R,2S)-1-(5-chloro-2-pyrimidinyl)-N-(4-(4,6-dimethoxy-5-pyrimidinyl)-5-(5-methyl-2-furanyl)-4H-1,2,4-triazol-3-yl)-1-methoxy-2-propanesulfonamide], 150 pM; in that of `COCC1(n2c(NS(=O)(=O)[C@@H](C)[C@H](OC)c3ncc(Cl)cn3)nnc2-c2ccc(C)o2)CC1` [Example 385.0, (1R,2S)-1-(5-chloro-2-pyrimidinyl)-1-methoxy-N-(4-(1-(methoxymethyl)cyclopropyl)-5-(5-methyl-2-furanyl)-4H-1,2,4-triazol-3-yl)-2-propanesulfonamide], 380 pM.
Regarding `COCCn1c(NS(=O)(=O)[C@@H](C)[C@H](OC)c2ncc(Cl)cn2)nnc1-c1ccc(C)o1` [Example 386.0, (1R,2S)-1-(5-chloropyrimidin-2-yl)-1-methoxy-N-(4-(2-methoxyethyl)-5-(5-methylfuran-2-yl)-4H-1,2,4-triazol-3-yl)propane-2-sulfonamide], the concentration for a half-maximal effect (EC50) was 37000 pM.
Consider `COCC(COC)n1c(NS(=O)(=O)[C@@H](C)[C@H](OC)c2ncc(Cl)cn2)nnc1-c1ccc(C)o1` [Example 387.0, (1R,2S)-1-(5-chloro-2-pyrimidinyl)-N-(4-(1,3-dimethoxy-2-propanyl)-5-(5-methyl-2-furanyl)-4H-1,2,4-triazol-3-yl)-1-methoxy-2-propanesulfonamide], for which the half-maximal effective concentration (EC50) worked out at 2100 pM.
`CO[C@H](c1ncc(Cl)cn1)[C@H](C)S(=O)(=O)Nc1nnc(-c2ccc(C)o2)n1C(C)C` [Example 388.0, (1R,2S)-1-(5-chloropyrimidin-2-yl)-N-(4-isopropyl-5-(5-methylfuran-2-yl)-4H-1,2,4-triazol-3-yl)-1-methoxypropane-2-sulfonamide]: the EC50 was 37000 pM.
Under `CO[C@H](c1ncc(Cl)cn1)[C@H](C)S(=O)(=O)Nc1nnc(-c2ccc(C)o2)n1[C@H]1CCCOC1` [Example 390.0, (1R,2S)-1-(5-chloropyrimidin-2-yl)-1-methoxy-N-(5-(5-methylfuran-2-yl)-4-((S)-tetrahydro-2H-pyran-3-yl)-4H-1,2,4-triazol-3-yl)propane-2-sulfonamide] stands 13000 pM.
On to `CO[C@H](c1ncc(Cl)cn1)[C@H](C)S(=O)(=O)Nc1nnc(-c2ccc(C)o2)n1[C@@H]1CCCOC1` [Example 391.0, (1R,2S)-1-(5-chloropyrimidin-2-yl)-1-methoxy-N-(5-(5-methylfuran-2-yl)-4-((R)-tetrahydro-2H-pyran-3-yl)-4H-1,2,4-triazol-3-yl)propane-2-sulfonamide], for which the EC50 was 8400 pM.
In the case of `COCC(COC)n1c(NS(=O)(=O)[C@@H](C)[C@@H](OC(C)C)c2ncc(Cl)cn2)nnc1-c1ccc(C)o1` [Example 392.0, (1S,2S)-1-(5-chloro-2-pyrimidinyl)-N-(4-(1,3-dimethoxy-2-propanyl)-5-(5-methyl-2-furanyl)-4H-1,2,4-triazol-3-yl)-1-(2-propanyloxy)-2-propanesulfonamide] it was 550 pM; in that of `COc1ncnc(OC)c1-n1c(NS(=O)(=O)[C@@H](C)[C@H](C)c2ncc(F)cn2)nnc1-c1ccc(C)o1` [Example 393.0, (2S,3R)-N-(4-(4,6-dimethoxy-5-pyrimidinyl)-5-(5-methyl-2-furanyl)-4H-1,2,4-triazol-3-yl)-3-(5-fluoro-2-pyrimidinyl)-2-butanesulfonamide], 280 pM.
Under `COc1ncnc(OC)c1-n1c(NS(=O)(=O)[C@@H](C)[C@H](C)c2ncc(F)cn2)nnc1-c1ccc(Br)o1` [Example 394.0, (2S,3R)-N-(5-(5-bromo-2-furanyl)-4-(4,6-dimethoxy-5-pyrimidinyl)-4H-1,2,4-triazol-3-yl)-3-(5-fluoro-2-pyrimidinyl)-2-butanesulfonamide] stands 310 pM; under `[2H]C([2H])([2H])c1ccc(-c2nnc(NS(=O)(=O)[C@@H](C)[C@H](C)c3ncc(F)cn3)n2-c2c(OC)ncnc2OC)o1` [Example 395.0, (2S,3R)—N-(4-(4,6-Dimethoxy-5-pyrimidinyl)-5-(5-trideuteromethyl-2-furanyl)-4H-1,2,4-triazol-3-yl)-3-(5-fluoro-2-pyrimidinyl)-2-butanesulfonamide], 260 pM; under `COc1ncnc(OC)c1-n1c(NS(=O)(=O)[C@@H](C)[C@H](C)c2ncc(C#N)cn2)nnc1-c1ccc(C)o1` [Example 397.0, (2S,3R)-3-(5-Cyano-2-pyrimidinyl)-N-(4-(4,6-dimethoxy-5-pyrimidinyl)-5-(5-methyl-2-furanyl)-4H-1,2,4-triazol-3-yl)-2-butanesulfonamide], 510 pM.
For `COC[C@H](C)n1c(NS(=O)(=O)[C@@H](C)[C@H](C)c2ncc(Cl)cn2)nnc1-c1ccc(C)o1` [Example 398.0, (2S,3R)-3-(5-chloro-2-pyrimidinyl)-N-(4-((2S)-1-methoxy-2-propanyl)-5-(5-methyl-2-furanyl)-4H-1,2,4-triazol-3-yl)-2-butanesulfonamide], the EC50 turned out to be 10000 pM.
In the case of `COc1ncnc(OC)c1-n1c(NS(=O)(=O)[C@@H](C)[C@H](C)c2ccc(Cl)cn2)nnc1-c1ccc(C)o1` [Example 400.0, (2S,3R)-3-(5-chloro-2-pyridinyl)-N-(4-(4,6-dimethoxy-5-pyrimidinyl)-5-(5-methyl-2-furanyl)-4H-1,2,4-triazol-3-yl)-2-butanesulfonamide] it was 100 pM.
